# Laboratory results taken from a melting point compilation (Tetko et al.; mined from patent text by program, amines drawn as free bases though some values may be those of a salt).
row,Compound,melting point [°C]
1,CC(C)CC(NC(=O)C(CS)CC(F)(F)F)C(=O)O (centres undefined),78 to 81
2,O=C(O)CCc1ccccc1OCCCCCOc1ccc2c(c1CCCc1ccccc1)OCCC2=O,98 to 99
3,Cc1cccc(N(C)c2nc(Cl)nc(Cl)n2)c1C,140 to 141
4,COc1cc2cc(-c3c[nH]c4ccccc34)cnc2cc1OC,204 to 206
5,Cc1cccc(C(=O)O)c1N(C)S(=O)(=O)c1ccc(OCCCNC(=O)c2ccc3c(c2)OCO3)cc1,120
6,CC(=O)n1cccc(O)c1=O,140 to 141
7,CCN(CC)CCn1sc2nc(-c3ccccc3)ncc2c1=O,106 to 107
8,CCCNC(=O)C(C)Cc1ccc2cccc(Cc3ccc(C(=O)NS(=O)(=O)c4ccccc4C)cc3OC)c2c1 (centres undefined),210 to 212
9,COC(=O)C1(C)CCN(c2cccc(-c3cnc4[nH]cc(C(=O)C(C)(C)C)c4n3)c2)C1 (centres undefined),198 to 200
10,CN1C(=O)N(c2cc(Cl)cc(Cl)c2)C(=O)/C1=C\c1ccc(C#N)cc1,239 to 241
11,C=CCOc1ccc(OCc2ccccc2)cc1,56 to 57
12,O=C(O)COCCCCN(c1cnc(-c2ccccc2)c(-c2ccccc2)n1)C1CCCCC1,130 to 131
13,COC(=O)c1ccc(COC2OC(CO)C(O)C(O)C2O)o1 (centres undefined),72
14,CN1C(=O)C(C(=O)Nc2ccc(Oc3ncc(Cl)cc3Cl)cc2)C(=O)N(C)C1=O,234 to 235
15,COc1cc(SCCCc2ccc(-c3ccc(CCCSc4ccc(OCC(=O)O)c(OC)c4)cc3)cc2)ccc1OCC(=O)O,178 to 180
16,CC(=O)NC[C@H]1CN(c2cc(F)c(N3CCC(O)(COCC(F)(F)F)CC3)c(F)c2)C(=O)O1,182 to 184
17,CC(C)(CC(N)=O)C(Br)(Br)Br,109 to 111
18,C=CCc1cc(N2CCN(c3ccncc3)CC2)ccc1OCCCC(=O)OCC,53 to 55
19,CC(CCCl)C(=O)Nc1cc(C(C)(C)C)no1 (centres undefined),135 to 137
20,c1ccc(CNc2nc(-c3cccs3)nc3ccccc23)cc1,158 to 163
21,COc1ccc(C2CC(c3ccc(OC)c(OC)c3)=NN2c2ccc(C(=O)O)cc2)cc1 (centres undefined),141
22,Nc1ccc(-c2nc3c(s2)C(=O)c2ccccc2C3=O)o1,> 260
23,O=C(COc1ccc(C(=O)CN2CCN(c3ccncc3)CC2)cc1)NCc1ccccc1,150 to 151
24,CCc1c(-c2ccc(O)cc2)n(Cc2ccc(OCCN3CCCCC3)cc2)c2ccc(O)cc12,160 to 164
25,O=c1oc(-c2ccc(OCc3ccc4ccccc4c3)cc2)cc(O)c1SCCc1ccccc1,152 to 154

row,Compound,melting point [°C]
1,COc1ccc(C(=O)N2Cc3ccccc3CC2C(=O)O)cc1 (centres undefined),178 to 180
2,O=C1C(=C2CC=Cc3ccccc32)CCCC1=C1CC=Cc2ccccc21,212 to 213
3,CNC(=S)Nc1ccc(Cc2cc(C)c(C(=O)c3ccc(Cl)cc3)n2C)nc1,135
4,CN(Cc1ccc(OC(=O)Cc2ccccc2Nc2c(Cl)cccc2Cl)cc1)CC(C)(C)SN=O,126 to 130
5,CCCN(CCC)C(N)=C(C#N)C(N)=S,141 to 144
6,CN(C)c1ccc(C(=O)N[C@H](Cc2ccc(C(F)(F)F)cc2)[C@@H](O)c2ccc(F)cc2)c2ccccc12 (racemic),169 to 170
7,O=C1Nc2cccnc2N(C(=O)Cl)c2ccccc21,239 to 240
8,CC(=O)NC(=O)OC[C@]1(C)S[C@@H]2[C@H](NC(=O)Cc3ccccc3)C(=O)N2[C@H]1C(=O)OCc1ccc([N+](=O)[O-])cc1,83 to 85
9,COc1ccc(C(=O)Nc2c(Cl)cncc2Cl)c2c1oc1ccc(NC(=O)NCC(=O)O)cc12,> 250
10,COC(=O)c1cc(-c2ccc(C(F)(F)F)cc2)oc1COC(C)=O,60 to 61
11,CC(C)(OCc1cc2cc(Cl)ccc2n1S(=O)(=O)c1ccc2c(c1)OCCO2)C(=O)O,156 to 158
12,Cc1ccc([N+](=O)[O-])c(OCc2ccccc2)c1,49 to 51
13,CCCc1c(OCCCOc2cc(NC(=O)C(=O)O)c(C(F)(F)F)cc2Cl)ccc(C(C)=O)c1O,173 to 174
14,CCc1cc(OCc2ccccc2)cc(C(=O)OC)c1C(=O)OC,66 to 67
15,c1ccc(OCCSCc2ncc(-c3ccc(OCCN4CCCCCC4)cc3)o2)cc1,35 to 38
16,CCC1(CCCCN2CCN(c3cccc(OC)c3)CC2)C(=O)Nc2ccccc21 (centres undefined),123 to 125
17,O=C(Nc1ccccc1)C(=O)c1c2n(c3ccccc13)CCNCC2,157 to 160
18,CCCCNS(=O)(=O)c1cc(C(=O)Cl)ccc1Cl,110
19,CCOC(=O)c1cccnc1NC(=O)Cc1cccc(Oc2ccccc2)c1,90 to 91
20,CC(=O)Oc1ccc(C(C)(c2ccc(OC(C)=O)cc2)c2ccc(OC(C)=O)cc2)cc1,169
21,Cc1ccc(NC(=O)c2ccc3c(c2)C(=O)N(c2c(C)cccc2C)C3=O)cc1C,223 to 225
22,COC(C)=CC(=O)Nc1cccc(OC(=O)NC2CCCCC2)c1,200
23,COC(=O)C=Cc1csc2ccccc12,63 to 65
24,COc1ccc2c(c1)C(=O)CCC21CCC(=O)NC1=O (centres undefined),214 to 215
